This note sets out measurements from US12479834B2, “Phenol compound or salt thereof” (TAIHO PHARMACEUTICAL CO., LTD., priority 2019, dated 2025).

For one assay, the target named is T1, KRAS G12C mutant (Homo sapiens, UniProt P01116, G12C).
T1 construct: 50 μM G12C K-Ras4B (1-169) protein and 1 mM BODIPY® FL GDP; His tag (N, cleaved yes); made in house; host or cells: E. coli BL21 (DE3)
Briefly: Inhibition of SOS1-mediated nucleotide (GDP-GTP) exchange reaction of KRAS G12C mutant, BODIPY FL GDP fluorescence. It counts as biochemical. Particulars: preincubated 25° C. 4 hours with 25 nM KRAS G12C bound with BODIPY FL GDP; SOS1 100 nM, GppNHp 1 μM, 30 minutes. The source says: (§1) SOS1 protein was expressed in E. coli strain BL21 (DE3) by synthesizing a nucleotide sequence encoding the amino acid sequence represented by GenPept ID NP_005624 as a sequence optimized for E. coli by use of GeneArt Technology (Life Technologies Corp.) such that the protein was N-terminally His-tagged and fused with a TEV protease recognition sequence (ENLYFQG). The expressed His-tagged SOS1 (564-1049) was purified through a Ni column, then cleaved at its tag with N-terminally His-tagged TEV protease, and passed through a Ni column again to recover a flow-through fraction to obtain the protein.
Each compound was studied for its inhibitory effect on the exchange reaction of GDP into GppNHp in BODIPY® FL bound with the KRAS G12C mutant by fluorescence measurement using the G12C K-Ras4B (1-169) protein and the SOS1 protein.
For the preparation of the KRAS G12C mutant bound with BODIPY® FL GDP, first, 50 μM G12C K-Ras4B (1-169) protein and 1 mM BODIPY® FL GDP (Invitrogen Corp., G22360) were incubated for 1 hour in a buffer solution (20 mM Tris-HCl (pH 7.5), 50 mM NaCl, and 1 mM DTT) in ice in the presence of 2.5 mM EDTA. Then, MgCl2 was added thereto at a final concentration of 10 mM, then the mixture was incubated at room temperature for 30 minutes, and then, the protein was passed through a NAP-5 column for removal of free nucleotides and used for compound evaluation.
For the measurement of the inhibitory activity of compounds against nucleotide exchange reaction, first, the compound of the present invention was serially diluted with DMSO. Subsequently, the serially diluted solution of the compound of the present invention in DMSO (final concentration of DMSO: 5%) and the KRAS G12C mutant (25 nM) bound with BODIPY® FL GDP were added into a reaction buffer solution (20 mM Tris-HCl (pH 7.5), 100 mM NaCl, 1 mM MgCl2, 2 mM DTT, and 0.1% Tween 20), and the mixture was preincubated at 25° C. for 4 hours. Then, Son of Sevenless Homolog 1 (SOS1, amino acid region: 564-1049) and GppNHp (GMPPNP, Jena Bioscience GmbH, NU-401-50) were added thereto at final concentrations of 100 nM and 1 μM, respectively, and the mixture was reacted for 30 minutes. The change in fluorescence intensity of BODIPY® FL (excitation wavelength: 485 nm, fluorescence wavelength: 520 nm) between immediately after the start of reaction and after 30 minutes from the start of reaction was standardized, and then, the compound concentration at which 50% inhibition was achieved was calculated as IC50 (nM) when the signal value for only DMSO was defined as 0% inhibition and the signal value for no addition of GppNHp was defined as 100% inhibition.

The next assay deals with T2, G12C K-Ras4B (1-169) (Homo sapiens, UniProt P01116, G12C).
T2 construct: G12C K-Ras4B (1-169) protein, which was a KRAS G12C mutant; His tag (N, cleaved yes); made in house; host or cells: E. coli BL21 (DE3)
Briefly: Binding to KRAS G12C mutant, compound binding rate by LC-MS. As to conditions: final compound concentration 2 μM, 1 μM protein, 2 hours at 25° C.
Source text: as §1, with “K-Ras4B (1-169)” for “SOS1”, “NP_004976” for “NP_005624”, “K-Ras4B (1-169)” for “SOS1 (564-1049)”, “fraction, which was further purified by anion-exchange chromatography” for “fraction”, “protein. G12C K-Ras4B (1-169) protein, which was a KRAS G12C mutant, was obtained in the same way as in the K-Ras4B(1-169) protein except that glycine at position 12 of the amino acid sequence represented by GenPept ID NP_004976 was mutated to cysteine.” for “protein.”
The K-Ras4B (1-169) protein and the G12C K-Ras4B (1-169) protein were mixed and diluted with a buffer solution (1×TBS and 0.1 mM TCEP) to prepare a protein solution containing 1 μM each of the proteins. Each test compound was dissolved at 10 mM in DMSO and further diluted 10-fold with DMSO to make a 1 mM solution. Then, the solution was diluted 5-fold with DMSO to make a 200 μM solution. The 200 μM solution was further diluted 5-fold to make a […] solution. 1 μL of the 40 μM test compound was added to 19 μL of the 1 μM protein solution such that the final compound concentration was 2 μM. The mixture was stored for 2 hours in an incubator of 25° C., and the reaction was terminated by the addition of 80 μL of a 1×TBS solution containing 0.2% formic acid, followed by LC-MS measurement.
The LC-MS measurement was performed by using Xevo G2-S Q-Tof manufactured by Waters Corp., performing reverse-phase chromatography with a desalting column, and obtaining mass spectra of positive ions by electrospray. For the mass spectra, spectra of polyvalent ions were collectively converted to molecular weights by the MaxEnt technique using OpenLynx software, and then, a compound binding rate was obtained from the ratio of […].
The binding rates of test compounds having a final compound concentration of 2 μM for G12C K-Ras4B (1-169) are shown in the table below. The binding rate for G12C K-Ras4B (1-169) is rated “A” for 80% or more, “B” for 60% or more and less than 80%, “C” for 40% or more and less than 60%, “D” for 20% or more and less than 40%, and “E” for less than 20%.

Structures are written as SMILES.

Turning to `C=CC(=O)N1CC(NC(=O)c2oc(CNc3cc(C(C)(C)C)c(Cl)cc3O)cc2C)C1` [Example 21, N-(1-Acryloylazetidin-3-yl)-5-(((5-(tert-butyl)-4-chloro-2-hydroxyphenyl)amino)methyl)-3-methylfuran-2-carboxamide], the IC50 against KRAS G12C mutant amounted to 808 nM. Also, the “binding rate for G12C K-Ras4B (1-169)” value at G12C K-Ras4B (1-169) was “B (60% or more and less than 80%)”.

As to `C=CC(=O)N1CC(NC(=O)c2ccc(CNc3cc(C(C)(C)C)c(Cl)cc3O)cc2Cl)C1` [Example 22, N-(1-Acryloylazetidin-3-yl)-4-(((5-(tert-butyl)-4-chloro-2-hydroxyphenyl)amino)methyl)-2-chlorobenzamide], at KRAS G12C mutant, the 50% inhibitory concentration (IC50) stood at 2380 nM. For the same compound, at G12C K-Ras4B (1-169), the “binding rate for G12C K-Ras4B (1-169)” value is “D (20% or more and less than 40%)”.

In the case of `C=CC(=O)N1CC(NC(=O)c2cc(CNc3cc(C(C)(C)C)c(Cl)cc3O)ccc2F)C1` [Example 23, N-(1-Acryloylazetidin-3-yl)-5-(((5-(tert-butyl)-4-chloro-2-hydroxyphenyl)amino)methyl)-2-fluorobenzamide], it took 1000 nM to reach half-maximal inhibition against KRAS G12C mutant (IC50). The “binding rate for G12C K-Ras4B (1-169)” value on G12C K-Ras4B (1-169) is “C (40% or more and less than 60%)”.

For the compound `C=CC(=O)N1CC(NC(=O)c2sc(CNc3cc(C(C)(C)C)c(Cl)cc3O)nc2C(F)(F)F)C1` [Example 24, N-(1-Acryloylazetidin-3-yl)-2-(((5-(tert-butyl)-4-chloro-2-hydroxyphenyl)amino)methyl)-4-(trifluoromethyl)thiazole-5-carboxamide], half-maximal inhibition against KRAS G12C mutant (IC50) required 780 nM. Besides, on G12C K-Ras4B (1-169), the “binding rate for G12C K-Ras4B (1-169)” value is “C (40% or more and less than 60%)”.

In the case of `C=CC(=O)N1CC(NC(=O)c2cn(C)c(CNc3cc(C(C)(C)C)c(Cl)cc3O)n2)C1` [Example 25, N-(1-Acryloylazetidin-3-yl)-2-(((5-(tert-butyl)-4-chloro-2-hydroxyphenyl)amino)methyl)-1-methyl-1H-imidazole-4-carboxamide], at KRAS G12C mutant, half-maximal inhibition (IC50) was put at 4680 nM. Besides, the “binding rate for G12C K-Ras4B (1-169)” value at G12C K-Ras4B (1-169) was “E (less than 20%)”.

As to `C=CC(=O)N1CC(NC(=O)c2cnc(CNc3cc(C(C)(C)C)c(Cl)cc3O)[nH]2)C1` [Example 26, N-(1-Acryloylazetidin-3-yl)-2-(((5-(tert-butyl)-4-chloro-2-hydroxyphenyl)amino)methyl)-1H-imidazole-5-carboxamide], inhibition on KRAS G12C mutant was half-maximal at 212 nM (IC50). Also, the “binding rate for G12C K-Ras4B (1-169)” value on G12C K-Ras4B (1-169) is reported as “A (80% or more)”.

With `C=CC(=O)N1CC(NC(=O)c2c(I)nc(CNc3cc(C(C)(C)C)c(Cl)cc3O)n2C)C1` [Example 27, N-(1-Acryloylazetidin-3-yl)-2-(((5-(tert-butyl)-4-chloro-2-hydroxyphenyl)amino)methyl)-4-iodo-1-methyl-1H-imidazole-5-carboxamide], the IC50 on KRAS G12C mutant stood at 16 nM. Further, at G12C K-Ras4B (1-169), the “binding rate for G12C K-Ras4B (1-169)” value is recorded as “A (80% or more)”.

As for `C=CC(=O)N1CC(N(C)C(=O)c2cnc(CNc3cc(C(C)(C)C)c(Cl)cc3O)o2)C1` [Example 28, N-(1-Acryloylazetidin-3-yl)-2-(((5-(tert-butyl)-4-chloro-2-hydroxyphenyl)amino)methyl)-N-methyloxazole-5-carboxamide], at KRAS G12C mutant, half-maximal inhibition (IC50) was put at 201 nM. Moreover, the “binding rate for G12C K-Ras4B (1-169)” value on G12C K-Ras4B (1-169) was “C (40% or more and less than 60%)”.

At KRAS G12C mutant, `C=CC(=O)N1CC(N(C)C(=O)c2cccc(CNc3cc(C(C)(C)C)c(Cl)cc3O)n2)C1` [Example 30, N-(1-Acryloylazetidin-3-yl)-6-(((5-(tert-butyl)-4-chloro-2-hydroxyphenyl)amino)methyl)-N-methylpicolinamide] showed an IC50 of 1690 nM. The “binding rate for G12C K-Ras4B (1-169)” value at G12C K-Ras4B (1-169) was “E (less than 20%)”.

Take `C=CC(=O)N1CC(N(C)C(=O)c2cnc(CNc3cc(C(C)(C)C)c(Cl)cc3O)s2)C1` [Example 31, N-(1-Acryloylazetidin-3-yl)-2-(((5-(tert-butyl)-4-chloro-2-hydroxyphenyl)amino)methyl)-N-methylthiazole-5-carboxamide]: the IC50 against KRAS G12C mutant was 247 nM. The “binding rate for G12C K-Ras4B (1-169)” value on G12C K-Ras4B (1-169) is “C (40% or more and less than 60%)”.

On KRAS G12C mutant, `C=CC(=O)N1CC(N(C)C(=O)c2csc(CNc3cc(C(C)(C)C)c(Cl)cc3O)n2)C1` [Example 32, N-(1-Acryloylazetidin-3-yl)-2-(((5-(tert-butyl)-4-chloro-2-hydroxyphenyl)amino)methyl)-N-methylthiazole-4-carboxamide] yielded a half-maximal inhibitory concentration (IC50) of 64 nM. Besides, the “binding rate for G12C K-Ras4B (1-169)” value on G12C K-Ras4B (1-169) is “B (60% or more and less than 80%)”.

At KRAS G12C mutant, `C=CC(=O)N1CC(N(C)C(=O)c2coc(CNc3cc(C(C)(C)C)c(Cl)cc3O)c2)C1` [Example 33, N-(1-Acryloylazetidin-3-yl)-5-(((5-(tert-butyl)-4-chloro-2-hydroxyphenyl)amino)methyl)-N-methylfuran-3-carboxamide] displayed a 50% inhibitory concentration (IC50) of 1490 nM. The “binding rate for G12C K-Ras4B (1-169)” value at G12C K-Ras4B (1-169) was “E (less than 20%)”.

Consider `C=CC(=O)N1CC(N(C)C(=O)c2cc(CNc3cc(C(C)(C)C)c(Cl)cc3O)co2)C1` [Example 34, N-(1-Acryloylazetidin-3-yl)-4-(((5-(tert-butyl)-4-chloro-2-hydroxyphenyl)amino)methyl)-N-methylfuran-2-carboxamide], for which the IC50 at KRAS G12C mutant was 80 nM. Besides, the “binding rate for G12C K-Ras4B (1-169)” value at G12C K-Ras4B (1-169) is listed as “A (80% or more)”.

On KRAS G12C mutant, `C=CC(=O)N1CC(N(C)C(=O)c2sc(CNc3cc(C(C)(C)C)c(Cl)cc3O)nc2C)C1` [Example 35, N-(1-Acryloylazetidin-3-yl)-2-(((5-(tert-butyl)-4-chloro-2-hydroxyphenyl)amino)methyl)-N,4-dimethylthiazole-5-carboxamide] gave an IC50 of 463 nM. Besides, the “binding rate for G12C K-Ras4B (1-169)” value at G12C K-Ras4B (1-169) was “E (less than 20%)”.

For the compound `C=CC(=O)N1CC(NC(=O)c2cnc(CNc3cc(C(C)(C)C)c(Cl)cc3O)n2CC)C1` [Example 36, N-(1-Acryloylazetidin-3-yl)-2-(((5-(tert-butyl)-4-chloro-2-hydroxyphenyl)amino)methyl)-1-ethyl-1H-imidazole-5-carboxamide], the midpoint of inhibition against KRAS G12C mutant, the IC50, lay at 15 nM. The “binding rate for G12C K-Ras4B (1-169)” value on G12C K-Ras4B (1-169) is recorded as “A (80% or more)”.
